Source: ChEMBL document CHEMBL5055639, “ω-Functionalized Lipid Prodrugs of HIV NtRTI Tenofovir with Enhanced Pharmacokinetic Properties” (J Med Chem, 2021)

How the values were obtained:
HEK-293T = assay: Cytotoxicity against HEK293T cells assessed as reduction in cell viability measured after 48 hrs by CellTiter 96 Aqueous One Solution reagent based cell proliferation assay; conditions: human
[1] = tested on: Human immunodeficiency virus; assay: Antiviral activity against human immunodeficiency virus expressed in HEK293T cells coexpressing firefly luciferase gene incubated for 48 hrs by Bright-Glo luciferase assay; type: functional, organism-based; conditions: Human immunodeficiency virus 1, HEK-293T
Cytochrome P450 2D6 = Cytochrome P450 2D6 (Homo sapiens, UniProt P10635); assay: Inhibition of human recombinant CYP2D6 expressed in insect microsome using (3-[2-([…]-N-methylammonium)-ethyl]-7-methoxy-4-methylcoumarin iodide as a substrate incubated for 30 mins followed by addition of NADPH regenerating system measured immediately by fluorescence based analysis; type: ADME, microsomes
Cytochrome P450 3A4 = Cytochrome P450 3A4 (Homo sapiens, UniProt P08684); assay: Inhibition of human recombinant CYP3A4 expressed in insect microsome using 7-benzyloxy-4-trifluoromethylcoumarin as a substrate incubated for 30 mins followed by addition of NADPH regenerating system measured immediately by fluorescence based analysis; type: ADME, microsomes
[2] = Therapeutic index, ratio of CC50 for cytotoxicity against HEK293T cells to IC50 for antiviral activity against human immunodeficiency virus expressed in HEK293T cells; type: toxicity, cell-based; conditions: read-out: Ratio CC50/IC50
[3] = Metabolic stability in human liver microsomes assessed as half life at 3 uM measured up to 30 min in presence of NADPH by LC-MS/MS analysis; type: ADME, Microsome; conditions: 0.5 h
[4] = Cmax in C57BL/6 mouse liver at 10 mg/kg, po measured up to 24 hrs by LC-MS/MS analysis; type: ADME, organism-based; design: time < 24 hrs, dose 10 mg/kg, route po; conditions: in vivo
[5] = Prodrug conversion in C57BL/6 mouse plasma assessed as Cmax of TFV metabolite at 10 mg/kg, po measured up to 24 hrs by LC-MS/MS analysis; type: ADME, organism-based; design: time < 24 hrs, dose 10 mg/kg, route po; conditions: in vivo
[6] = Prodrug conversion in C57BL/6 mouse plasma assessed as AUC(0 to 24 hrs) of TFV metabolite at 10 mg/kg, po measured up to 24 hrs by LC-MS/MS analysis; type: ADME, organism-based; design: time < 24 hrs, dose 10 mg/kg, route po; conditions: in vivo
[7] = AUC(0 to 24 hrs) in C57BL/6 mouse plasma at 10 mg/kg, po measured up to 24 hrs by LC-MS/MS analysis; type: ADME, organism-based; design: time < 24 hrs, dose 10 mg/kg, route po; conditions: in vivo
[8] = Cmax in C57BL/6 mouse plasma at 10 mg/kg, po measured up to 24 hrs by LC-MS/MS analysis; type: ADME, organism-based; design: dose 10 mg/kg, time < 24 hrs, route po; conditions: in vivo
[9] = Tmax in C57BL/6 mouse liver at 10 mg/kg, po measured up to 24 hrs by LC-MS/MS analysis; type: ADME, organism-based
[10] = Half life in C57BL/6 mouse plasma at 10 mg/kg, po measured up to 24 hrs by LC-MS/MS analysis; type: ADME, organism-based; conditions: in vivo
[11] = Prodrug conversion in C57BL/6 mouse liver assessed as AUC(0 to 24 hrs) of TFV metabolite at 10 mg/kg, po measured up to 24 hrs by LC-MS/MS analysis; type: ADME, organism-based; design: time < 24 hrs, dose 10 mg/kg, route po; conditions: in vivo
[12] = AUC(0 to 24 hrs) in C57BL/6 mouse liver at 10 mg/kg, po measured up to 24 hrs by LC-MS/MS analysis; type: ADME, organism-based; design: time < 24 hrs, dose 10 mg/kg, route po; conditions: in vivo
[13] = Plasma protein binding in C57BL/6 mouse at 10 mg/kg, po measured up to 24 hrs by LC-MS/MS; type: ADME, organism-based; conditions: read-out: PPB
[14] = Prodrug conversion in C57BL/6 mouse liver assessed as Cmax of TFV metabolite at 10 mg/kg, po measured up to 24 hrs by LC-MS/MS analysis; type: ADME, organism-based; design: dose 10 mg/kg, time < 24 hrs, route po; conditions: in vivo
[15] = Prodrug conversion in C57BL/6 mouse plasma assessed as Tmax of TFV metabolite at 10 mg/kg, po measured up to 24 hrs by LC-MS/MS analysis; type: ADME, organism-based; conditions: in vivo
[16] = Tmax in C57BL/6 mouse plasma at 10 mg/kg, po measured up to 24 hrs by LC-MS/MS analysis; type: ADME, organism-based; conditions: in vivo
[17] = Prodrug conversion in C57BL/6 mouse liver assessed as Tmax of TFV metabolite at 10 mg/kg, po measured up to 24 hrs by LC-MS/MS analysis; type: ADME, organism-based; conditions: in vivo
[18] = Ratio of test compound t1/2 to TXL t1/2 for metabolic stability in human liver microsomes assessed as half life at 3 uM measured up to 30 min in presence of NADPH by LC-MS/MS analysis; type: ADME, Microsome; conditions: 0.5 h
[19] = Ratio of prodrug AUC(0 to 24 hrs) to TFV AUC(0 to 24 hrs) in C57BL/6 mouse plasma at 10 mg/kg, po measured up to 24 hrs by LC-MS/MS analysis; type: ADME, organism-based; conditions: in vivo
[20] = Ratio of prodrug AUC(0 to 24 hrs) to TFV AUC(0 to 24 hrs) in C57BL/6 mouse liver at 10 mg/kg, po measured up to 24 hrs by LC-MS/MS analysis; type: ADME, organism-based; conditions: in vivo
[21] = Half life in HBV patients at 50 mg, po qa administered for 28 days; type: ADME, organism-based; conditions: human, in vivo, time 28 day
[22] = Prodrug conversion in […] patients assessed as Cmax of TFV metabolite at 50 mg, po qa administered for 28 days; type: ADME, organism-based; design: time 28 day, dose 50 mg, route po; conditions: human, in vivo, 672 h
[23] = Tmax in HBV patients at 50 mg, po qa administered for 28 days; type: ADME, organism-based; conditions: human, in vivo, time 28 day
[24] = Cmax in HBV patients at 50 mg, po qa administered for 28 days; type: ADME, organism-based; design: dose 50 mg, time 28 day, route po; conditions: human, in vivo
[25] = tested on: Human immunodeficiency virus; assay: Potency index, ratio of TFV IC50 to TXL IC50 for antiviral activity against human immunodeficiency virus expressed in HEK293T cells coexpressing firefly luciferase gene incubated for 48 hrs by Bright-Glo luciferase assay; type: functional
[26] = AUC(0 to 24 hrs) in HBV patients at 50 mg, po qa administered for 28 days; type: ADME, organism-based; design: time 28 day, dose 50 mg, route po; conditions: human, in vivo
[27] = Prodrug conversion in […] patients assessed as AUC(0 to 24 hrs) of TFV metabolite at 50 mg, po qa administered for 28 days; type: ADME, organism-based; design: time 28 day, dose 50 mg, route po; conditions: human, in vivo, 672 h

Sequence of Cytochrome P450 3A4 (P08684 whole entry): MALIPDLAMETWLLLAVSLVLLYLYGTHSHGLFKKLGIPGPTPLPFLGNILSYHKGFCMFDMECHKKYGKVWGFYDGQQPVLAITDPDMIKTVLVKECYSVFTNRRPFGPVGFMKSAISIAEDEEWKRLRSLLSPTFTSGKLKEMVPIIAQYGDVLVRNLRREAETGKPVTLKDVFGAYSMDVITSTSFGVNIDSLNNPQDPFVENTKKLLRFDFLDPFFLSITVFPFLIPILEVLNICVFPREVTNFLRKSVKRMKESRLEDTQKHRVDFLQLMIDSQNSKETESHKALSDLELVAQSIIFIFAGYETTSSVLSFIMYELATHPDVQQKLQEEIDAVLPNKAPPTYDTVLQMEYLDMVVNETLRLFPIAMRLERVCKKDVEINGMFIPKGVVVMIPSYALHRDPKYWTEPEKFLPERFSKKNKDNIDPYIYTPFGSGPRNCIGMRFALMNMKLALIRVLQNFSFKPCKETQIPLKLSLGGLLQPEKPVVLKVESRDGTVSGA
Sequence of Cytochrome P450 2D6 (P10635 whole entry): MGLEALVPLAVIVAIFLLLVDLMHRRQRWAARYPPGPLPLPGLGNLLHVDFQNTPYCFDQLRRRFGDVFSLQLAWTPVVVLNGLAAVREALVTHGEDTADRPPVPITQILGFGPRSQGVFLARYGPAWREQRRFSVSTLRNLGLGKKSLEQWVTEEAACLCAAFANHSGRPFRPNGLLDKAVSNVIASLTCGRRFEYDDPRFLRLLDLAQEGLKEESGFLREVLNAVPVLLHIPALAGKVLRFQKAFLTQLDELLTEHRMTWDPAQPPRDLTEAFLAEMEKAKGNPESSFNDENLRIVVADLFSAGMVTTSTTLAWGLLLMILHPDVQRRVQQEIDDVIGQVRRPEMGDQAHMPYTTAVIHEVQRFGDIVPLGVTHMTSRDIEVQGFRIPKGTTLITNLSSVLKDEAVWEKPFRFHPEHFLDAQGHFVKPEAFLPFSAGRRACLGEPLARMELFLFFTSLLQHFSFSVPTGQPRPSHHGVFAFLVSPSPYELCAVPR

**Q.** Which CC50 (HEK-293T) does the source give for `C#CCCCCCCCCCCCCCCOCCCOP(=O)(O)CO[C@H](C)Cn1cnc2c(N)ncnc21.N` here?
**A.** > 100 µM

**Q.** What about the IC50 [1] of the same compound?
**A.** 0.132 µM

**Q.** And the IC50 (Cytochrome P450 2D6)?
**A.** > 20 µM

**Q.** What about the IC50 (Cytochrome P450 3A4) of the same compound?
**A.** > 20 µM

**Q.** And the selectivity ratio [2]?
**A.** > 758

**Q.** And the t1/2 [3]?
**A.** > 2 h

**Q.** For `CCCCCCCCCCCCCCCOP(=O)(O)CO[C@H](C)Cn1cnc2c(N)ncnc21.N`, which CC50 (HEK-293T) is on record?
**A.** > 100 µM

**Q.** What about the IC50 [1] of the same compound?
**A.** 2.06 µM

**Q.** What about the selectivity ratio [2] of the same compound?
**A.** > 49

**Q.** And the t1/2 [3]?
**A.** 0.217 h

**Q.** Which Cmax [4] does the source give for `C[C@H](Cn1cnc2c(N)ncnc21)OCP(=O)(O)OCCCOCCCCCCCCCCCCC#C[Si](C)(C)C.N` here?
**A.** 8130 ng/mL

**Q.** What about the Cmax [5] of the same compound?
**A.** 14.1 ng/mL

**Q.** What about the AUC [6] of the same compound?
**A.** 142 ng·h/mL

**Q.** What about the AUC [7] of the same compound?
**A.** 550 ng·h/mL

**Q.** What about the Cmax [8] of the same compound?
**A.** 120 ng/mL

**Q.** What about the Tmax ([9]; C57BL/6, mouse, liver, read-out: Tmax) of the same compound?
**A.** 4 h

**Q.** And the IC50 [1]?
**A.** 0.069 µM

**Q.** What about the t1/2 [10] of the same compound?
**A.** 2.49 h

**Q.** What about the AUC [11] of the same compound?
**A.** 11200 ng·h/mL

**Q.** And the AUC [12]?
**A.** 101000 ng·h/mL

**Q.** And the IC50 (Cytochrome P450 2D6)?
**A.** 21.7 µM

**Q.** What about the IC50 (Cytochrome P450 3A4) of the same compound?
**A.** > 20 µM

**Q.** And the fraction unbound at 24 h [13]?
**A.** < 0.001

**Q.** What about the Cmax [14] of the same compound?
**A.** 671 ng/mL

**Q.** And the Tmax [15]?
**A.** 12 h

**Q.** What about the Tmax [16] of the same compound?
**A.** 2 h

**Q.** And the t1/2 [3]?
**A.** > 2 h

**Q.** What about the Tmax [17] of the same compound?
**A.** 4 h

**Q.** Which CC50 (HEK-293T) does the source give for `C#CCCCCCCCCCCCCCOP(=O)(O)CO[C@H](C)Cn1cnc2c(N)ncnc21.N` here?
**A.** > 100 µM

**Q.** And the IC50 [1]?
**A.** 28.6 µM

**Q.** What about the Ratio [18] of the same compound?
**A.** >= 3

**Q.** What about the selectivity ratio [2] of the same compound?
**A.** > 3

**Q.** What about the t1/2 [3] of the same compound?
**A.** 1.57 h

**Q.** With `C#CCCCCCCCCCCCCCCCCCCOP(=O)(O)CO[C@H](C)Cn1cnc2c(N)ncnc21.N` as the compound, how does the CC50 (HEK-293T) read?
**A.** 99.5 µM

**Q.** And the IC50 [1]?
**A.** 1.18 µM

**Q.** What about the IC50 (Cytochrome P450 3A4) of the same compound?
**A.** > 50 µM

**Q.** What about the selectivity ratio [2] of the same compound?
**A.** 84

**Q.** And the t1/2 [3]?
**A.** > 2 h

**Q.** Which CC50 (HEK-293T) does the source give for `CCCCCCCCCCCCCCCCSCCCOP(=O)(O)CO[C@H](C)Cn1cnc2c(N)ncnc21.N` here?
**A.** 49.8 µM

**Q.** What about the IC50 [1] of the same compound?
**A.** 0.01 µM

**Q.** And the selectivity ratio [2]?
**A.** 4980

**Q.** And the t1/2 [3]?
**A.** 0.7 h

**Q.** For `C#CCCCCCCCCCCCCCCCCOP(=O)(O)CO[C@H](C)Cn1cnc2c(N)ncnc21.N`, which CC50 (HEK-293T) is on record?
**A.** > 100 µM

**Q.** What about the IC50 [1] of the same compound?
**A.** 2.03 µM

**Q.** And the selectivity ratio [2]?
**A.** > 49

**Q.** And the t1/2 [3]?
**A.** > 2 h

**Q.** Which Cmax [4] does the source give for `CCCCCCCCCCCCCCCCOCCCOP(=O)(O)CO[C@H](C)Cn1cnc2c(N)ncnc21.N` here?
**A.** 2730 ng/mL

**Q.** And the “Ratio AUC” value [19]?
**A.** 2.29

**Q.** What about the “Ratio AUC” value [20] of the same compound?
**A.** 0.19

**Q.** What about the CC50 (HEK-293T) of the same compound?
**A.** 97.6 µM

**Q.** And the Cmax [5]?
**A.** 19.6 ng/mL

**Q.** And the AUC [6]?
**A.** 132 ng·h/mL

**Q.** And the AUC [7]?
**A.** 301 ng·h/mL

**Q.** What about the Cmax [8] of the same compound?
**A.** 125 ng/mL

**Q.** And the Tmax ([9]; mouse, in vivo, po, 10 mg/kg, 24 h)?
**A.** 1 h

**Q.** And the t1/2 [10]?
**A.** 2.92 h

**Q.** And the AUC [11]?
**A.** 26100 ng·h/mL

**Q.** And the half-life [21]?
**A.** 1.5 h

**Q.** What about the Cmax [22] of the same compound?
**A.** 8.5 ng/mL

**Q.** And the AUC [12]?
**A.** 4970 ng·h/mL

**Q.** What about the Tmax [23] of the same compound?
**A.** 1.5 h

**Q.** What about the Cmax [24] of the same compound?
**A.** 51 ng/mL

**Q.** And the “Ratio IC50” value [25]?
**A.** 89

**Q.** What about the selectivity ratio [2] of the same compound?
**A.** 5420

**Q.** And the AUC at 672 h [26]?
**A.** 110 ng·h/mL

**Q.** And the AUC [27]?
**A.** 136 ng·h/mL

**Q.** And the fraction unbound at 24 h [13]?
**A.** < 0.001

**Q.** What about the Cmax [14] of the same compound?
**A.** 1460 ng/mL

**Q.** And the Tmax [15]?
**A.** 2 h

**Q.** What about the Tmax [16] of the same compound?
**A.** 1 h

**Q.** And the t1/2 [3]?
**A.** 0.7 h

**Q.** What about the Tmax [17] of the same compound?
**A.** 17.3 h
